Measured values: ChEMBL document CHEMBL1136424, “Novel selective small molecule agonists for peroxisome proliferator-activated receptor delta (PPARdelta)--synthesis and biological activity” (Bioorg Med Chem Lett, 2003)

Assays:
[1] = target: T1, Peroxisome proliferator-activated receptor delta (Homo sapiens, UniProt Q03181); assay: Maximum transcriptional activation of human PPAR delta receptor
T1 sequence (Q03181 whole entry): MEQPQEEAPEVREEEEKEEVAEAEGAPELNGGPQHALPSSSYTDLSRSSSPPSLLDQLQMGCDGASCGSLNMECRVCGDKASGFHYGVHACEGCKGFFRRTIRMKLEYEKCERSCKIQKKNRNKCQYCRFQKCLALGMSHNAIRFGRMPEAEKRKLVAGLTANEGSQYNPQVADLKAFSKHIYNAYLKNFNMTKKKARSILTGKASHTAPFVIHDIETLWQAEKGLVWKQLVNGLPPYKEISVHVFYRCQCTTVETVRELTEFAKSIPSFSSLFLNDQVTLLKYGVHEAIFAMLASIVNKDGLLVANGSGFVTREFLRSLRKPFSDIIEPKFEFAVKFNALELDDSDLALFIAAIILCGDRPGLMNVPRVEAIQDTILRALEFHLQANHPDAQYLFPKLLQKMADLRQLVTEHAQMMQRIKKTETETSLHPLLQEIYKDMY

[2] = target: T1, Peroxisome proliferator-activated receptor delta; assay: Binding affinity for human PPAR delta receptor
[3] = target: T2, Peroxisome proliferator-activated receptor gamma (Homo sapiens, UniProt P37231); assay: Maximum transcriptional activation of human PPAR gamma receptor
T2 sequence (P37231 whole entry): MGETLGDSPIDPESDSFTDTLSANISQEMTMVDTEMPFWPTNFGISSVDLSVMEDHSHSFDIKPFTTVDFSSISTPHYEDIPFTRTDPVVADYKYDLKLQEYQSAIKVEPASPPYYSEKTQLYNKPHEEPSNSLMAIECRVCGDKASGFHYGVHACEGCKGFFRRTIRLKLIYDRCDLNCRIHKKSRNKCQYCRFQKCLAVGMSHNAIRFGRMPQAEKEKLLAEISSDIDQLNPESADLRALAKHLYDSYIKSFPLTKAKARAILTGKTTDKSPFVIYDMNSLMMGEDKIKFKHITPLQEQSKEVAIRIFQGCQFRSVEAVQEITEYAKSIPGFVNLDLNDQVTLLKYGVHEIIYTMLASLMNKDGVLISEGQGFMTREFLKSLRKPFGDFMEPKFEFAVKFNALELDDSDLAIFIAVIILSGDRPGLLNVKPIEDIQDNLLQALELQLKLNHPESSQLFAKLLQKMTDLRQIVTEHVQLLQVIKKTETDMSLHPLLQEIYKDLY

[4] = target: T3, Peroxisome proliferator-activated receptor alpha (Homo sapiens, UniProt Q07869); assay: Maximum transcriptional activation of human PPAR alpha receptor
T3 sequence (Q07869 whole entry): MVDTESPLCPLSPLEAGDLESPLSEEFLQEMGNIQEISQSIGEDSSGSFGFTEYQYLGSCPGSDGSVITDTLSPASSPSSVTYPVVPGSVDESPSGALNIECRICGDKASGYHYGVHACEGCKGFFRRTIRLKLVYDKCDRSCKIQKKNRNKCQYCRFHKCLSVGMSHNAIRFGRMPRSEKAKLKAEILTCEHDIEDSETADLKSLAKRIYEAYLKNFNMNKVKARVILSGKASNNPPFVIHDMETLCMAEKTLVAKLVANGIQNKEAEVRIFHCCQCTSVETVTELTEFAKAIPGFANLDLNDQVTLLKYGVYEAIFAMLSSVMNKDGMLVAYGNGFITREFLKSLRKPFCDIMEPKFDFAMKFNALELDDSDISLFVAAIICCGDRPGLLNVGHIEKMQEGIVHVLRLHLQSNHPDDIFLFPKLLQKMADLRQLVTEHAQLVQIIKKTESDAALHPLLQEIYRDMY

[5] = target: T2, Peroxisome proliferator-activated receptor gamma; assay: Maximum transcriptional activation of human PPAR gamma receptor; IA=inactive
[6] = target: T3, Peroxisome proliferator-activated receptor alpha; assay: Maximum transcriptional activation of human PPAR alpha receptor; IA=inactive
[7] = target: T4, Peroxisome proliferator-activated receptor gamma (Mus musculus, UniProt P37238); assay: Activity against murine PPAR gamma receptor
T4 sequence (P37238 whole entry): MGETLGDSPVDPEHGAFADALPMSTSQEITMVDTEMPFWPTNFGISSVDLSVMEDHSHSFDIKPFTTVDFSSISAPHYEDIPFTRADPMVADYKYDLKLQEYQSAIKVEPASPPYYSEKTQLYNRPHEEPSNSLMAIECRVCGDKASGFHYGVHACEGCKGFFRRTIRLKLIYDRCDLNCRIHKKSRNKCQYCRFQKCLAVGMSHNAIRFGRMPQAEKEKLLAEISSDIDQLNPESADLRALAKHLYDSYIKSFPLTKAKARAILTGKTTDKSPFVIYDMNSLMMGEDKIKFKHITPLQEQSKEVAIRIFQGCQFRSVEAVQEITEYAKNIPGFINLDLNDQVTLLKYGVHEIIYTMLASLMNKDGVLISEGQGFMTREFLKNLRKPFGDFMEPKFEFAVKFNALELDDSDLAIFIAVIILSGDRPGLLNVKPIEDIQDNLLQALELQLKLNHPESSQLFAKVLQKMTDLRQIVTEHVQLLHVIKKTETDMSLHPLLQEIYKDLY

[8] = Half-life was measured in mice; assay type: ADME, organism-based; conditions: mouse, in vivo

Row | EC50 [1] [nM] | IC50 [2] [nM] | EC50 [3] [µM] | EC50 [6] | half-life [8] [min] | SMILES | EC50 [4] [nM] | EC50 [5] | EC50 [7] [µM]
1 | 5900 | 5500 | – | Not Active | – | Cc1nc(-c2ccc(C(F)(F)F)cc2)oc1COc1ccc(C(=O)O)cc1 | – | Not Active | –
2 | 90 | 30 | 7.04 | – | – | Cc1nc(-c2ccc(C(F)(F)F)cc2)sc1COc1ccc(CCC(=O)O)cc1 | 3000 | – | –
3 | 30 | 60 | 4.2 | – | – | Cc1cc(OCc2sc(-c3ccc(C(F)(F)F)cc3)nc2C)ccc1CCC(=O)O | 1700 | – | –
4 | 60 | 90 | 3.3 | – | < 10 | Cc1nc(-c2ccc(C(F)(F)F)cc2)oc1COc1ccc(CCC(=O)O)cc1 | 280 | – | –
5 | 420 | 90 | 6.4 | Not Active | – | Cc1nc(-c2ccc(C(F)(F)F)cc2)oc1CSc1ccc(OCC(=O)O)cc1 | – | – | –
6 | 1900 | 1000 | 7.9 | – | – | Cc1nc(-c2ccc(C(F)(F)F)cc2)sc1COc1ccc(CC(=O)O)cc1 | 6900 | – | –
7 | 470 | 340 | 9.8 | Not Active | – | Cc1nc(-c2ccc(C(F)(F)F)cc2)oc1COc1ccc(OCC(=O)O)cc1 | – | – | –

Row | SMILES | EC50 [1] [nM] | IC50 [2] [nM] | EC50 [3] [µM] | EC50 [6] | half-life [8] [min] | EC50 [4] [nM] | EC50 [5] | EC50 [7] [µM]
8 | Cc1cc(OCc2sc(-c3ccc(C(F)(F)F)cc3)nc2C)ccc1/C=C/C(=O)O | 20 | 1000 | 2.7 | – | – | 3200 | – | –
9 | Cc1cc(SCc2sc(-c3ccc(C(F)(F)F)c(F)c3)nc2C)ccc1OCC(=O)O | – | – | 2 | – | – | 1100 | – | > 10
10 | Cc1cc(SCc2oc(-c3ccc(C(F)(F)F)cc3)nc2C)ccc1OCC(=O)O | 10 | 3 | 1.61 | – | – | 2500 | – | –
11 | Cc1cc(OCc2oc(-c3ccc(C(F)(F)F)cc3)nc2C)ccc1OCC(=O)O | 30 | 30 | – | – | – | 3200 | Not Active | –
